# “Also recorded” adds a separate entry of the source. Non-standard residues stand in square brackets, D forms with d. Residues, ends and D or L forms follow the SMILES beside them. 1Nal = N[C@@H](Cc1cccc2ccccc12)C(=O)O; NMeF = CN[C@@H](Cc1ccccc1)C(=O)O; Cha = N[C@@H](CC1CCCCC1)C(=O)O; dCha = N[C@H](CC1CCCCC1)C(=O)O
# T1: C5a receptor (Homo sapiens, UniProt P21730)
# T1 construct: followed by a 20 μL aliquot of neutrophil membrane; endogenous in cells
# T1 sequence (P21730 1-350): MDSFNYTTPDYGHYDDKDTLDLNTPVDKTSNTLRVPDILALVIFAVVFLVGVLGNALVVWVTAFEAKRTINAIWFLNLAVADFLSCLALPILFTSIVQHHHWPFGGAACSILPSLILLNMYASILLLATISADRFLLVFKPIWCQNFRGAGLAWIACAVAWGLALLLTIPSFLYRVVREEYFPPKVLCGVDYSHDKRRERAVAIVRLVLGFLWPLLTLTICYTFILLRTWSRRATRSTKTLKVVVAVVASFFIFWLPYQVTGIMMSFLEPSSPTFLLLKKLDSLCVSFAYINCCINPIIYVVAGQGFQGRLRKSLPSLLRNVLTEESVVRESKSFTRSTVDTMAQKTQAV
# B1: C5a: 74 amino acid protein derived from the fifth component of serum complement during complement activation (protein, UniProt P01031 678-751, looked up)
# C5a anaphylatoxin: TLQKKIEEIAAKYKHSVVKKCCYDGACVNNDETCEQRAARISLGPRCIKAFTECCVVASQLRANISHKDMQLGR
# modifications: C5a anaphylatoxin
# Experiments:
# Format in all cases: cell-based
# C5a receptor = target: T1, C5a receptor; experiment: Agonist activity over all C5a induced responses (chemotaxis, MPO release, calcium flux, GTPase activity, GTPγ-S binding); details: C089 tested up to and including 100 μM
# Protocol: The EC50 measures the concentration of compound at which a 50% maximal stimulation of a given biological response induced by C5a is achieved (chemotaxis, MPO release, calcium flux, GTPase activity or GTPγ-S binding), and the IC50 is the concentration at which 50% maximal inhibition of C5a binding is achieved.
# (§1) This assay was performed on human neutrophils as previously reported and it is a measure of C5a or peptide induced exocytosis (Rollins, T. E. and Springer, M. S. (1985) J. Biol. Chem. 260, 7157-7160).
# (§2) Ligand induced Ca^2+ fluxes were measured by following the change in Indo-1 induced fluorescence on a FACS analyzer as previously described (Van Riper, G., Siciliano, S. J., Fischer, P. A., Meurer, R., Springer, M. S. and Rosen, H. (1993) J. Exp. Med. 177, 851-856.).
# This assay is a modification of the procedure described by Sims et. al. (Sims, T. J., Geissler, F. T. and Page, R. C. (1985) J. lmmunol. Meth. 78, 279-291 ). Chemotaxis was assayed in a 48 well Neuro Probe chamber (Neuro Probe, Bethesda, MD) using ^51 Cr-labelled cells. […] After preforming a gradient for 30 minutes at 37° C., 2×10^5 labelled cells were added to the upper chamber and allowed to migrate at 37° C. for one hour. The upper two polycarbonate filters were then discarded and the formed wells cut from the nitrocellulose membrane. The radioactivity present in these filters is a measure of the number of cells that migrated through both polycarbonate filters.
# The method of Kupper et al. (Kupper, R. W., Dewald, B., Jakobs, K. H., Baggiolini, M. and Gierschik, P. (1992) Biochem. J. 282, 429-434) was adapted for use in microtiter plates. Neutrophil membranes were suspended in 50 mM triethanolamine-HCl, 5 mM MES, pH 7.3, containing 1 mM EDTA, 5 mM MgCl2, 143 mM NaCl, 0.16 % BSA, 1 mM ouabain, 1 mM AMP-PNP, 0.5 mM ATP, 2.5 U/mL creatine phosphokinase,. 10 mM creatine phosphate, 0.1 mM PMSF and 10 ng/mL each of leupeptin, aprotinin and chymostatin. 50 μL of membranes containing 1-5 μg protein were added to 50 μL of the same buffer containing the test agent and 0.25 μM [γ-^32 P]-GTP (2,000 cpm/pmol) in the wells of a U-shaped microtiter plate. After incubation for 15-30 rain at 29° C., 100 μL of a 10% (w/v) charcoal suspension in 100 mM H3 PO4 was added and plates were centrifuged at 2000 rpm for 5 min. 100 μL of the supernatant was transferred to an Optiplate microtiter plate and 100 μL of Microscint-40 scintillation cocktail was added. Plates were counted in a Packard TopCount microtiter plate counter.
# human neutrophils [1] = experiment: Degranulation, myeloperoxidase (MPO) release from human neutrophils (agonism); details: for EC50: MPO release, read-out: ED50 for degranulation; for EC50/IC50 (degranulation/binding): ratio degranulation EC50 to binding IC50
# Protocol: (§3) FIG. 5A and 5B. Degranulation and Ca^2+ responses to the hexapeptides. […] The ED50 's for the degranulation are: C5a, 0.5 nM; C028, 0.2 μM; C026, 1 μM. C5a, maximally, released 57% of the total cellular content of MPO. The ability of these molecules to elicite a Ca^2+ -flux is shown in B. The concentrations used for C028 (10 μM), C026 (10 μM), C061 (100 μM) are those which produce a maximal flux. A saturating concentration was also used for C5a (1 nM).
# as §1
# The functional properties of two of the peptides, C026, and C028, were originally described by Mollison et. al (Mollison, K. W., Krause, R. A., Fey, T. A., Miller, L., Wiedeman, P. e., Kawai, M., Lane, B., Luly, J. R. and Carter, G. W. (1992) FASEB J. 6, A2058). […] We have reinvestigated the degranulating activities of these peptides as measured by the release of myeloperoxidase (MPO) from human neutrophils. […] The EC50 /IC50 (degranulation/binding) for C028 is 8, the same as that measured for C5a (Table II, FIG. 5A). […] However, the difference in activity between C026 and C028 is significant and reproducible. Since the structural difference between the two is the substitution of an aromatic for an aliphatic residue (Phe for Cha) we chose to make additional changes at position 5 which further increased aromaticity. […] To further examine whether the differences in activity between the peptides reflects the increased aromaticity we synthesized a molecule with Leu, an aliphatic amino acid, at position 5 (C068, Table II).
# human neutrophils [2] = experiment: Ligand induced Ca2+ flux (Indo-1 fluorescence); details: FIG. 5B
# Protocol: as §3, §2
# FIG. 5B compares the maximal effects of each peptide (10-100 μM) with the response induced by C5a (1 nM).
# [3] = maximal effects, peptide 10-100 μM vs 1 nM C5a
Molecule,"agonist activity in words, all responses (C5a receptor)",degranulating activity in words (human neutrophils [1]; FIG. 5A),EC50 (human neutrophils [1]; FIG. 5A) [nM],"MPO release relative to the maximal release produced by C5a or C028 (human neutrophils [1]; maximal effect, FIG. 5A) [%]",EC50/IC50 (degranulation/binding) (human neutrophils [1]),concentration which produces a maximal Ca2+ flux (human neutrophils [2]) [µM],Ca2+ response relative to C028 and C5a (human neutrophils [2]; [3]) [%],Ca2+ response in words (human neutrophils [2]; [3]),"release of total cellular MPO (human neutrophils [1]; 0.4 nM C5a or 8 nM IL-8, cells without C089) [%]","maximal release of total cellular content of MPO (human neutrophils [1]; maximal, FIG. 5A) [%]"
"CC(C)C[C@H](NC(=O)[C@H](CC1CCCCC1)NC(=O)[C@H](CC1CCCCC1)NC(=O)[C@H](C)NC(=O)[C@H](CCCCN)NC(=O)[C@H](Cc1ccccc1)NC(=O)[C@@H](N)Cc1ccc(O)cc1)C(=O)N[C@H](Cc1ccccc1)C(=O)N[C@@H](CCCNC(=N)N)C(=O)O [C009, Tyr Phe Lys Ala Cha Cha Leu dPhe Arg] (H-YFKA[Cha][Cha]L[dF]R-OH)",C5a agonist,–,–,–,–,–,–,–,–,–
"CN[C@@H](Cc1ccccc1)C(=O)N[C@@H](CCCCN)C(=O)N1CCC[C@H]1C(=O)N[C@H](CC1CCCCC1)C(=O)N[C@@H](Cc1ccccc1)C(=O)N[C@H](CCCNC(=N)N)C(=O)O [C026, NMeF--K--P-dCha-F-dR] (H-[NMeF]KP[dCha]F[dR]-OH)",–,partial agonist for degranution induction; also recorded: retains substantial degranulating activity,1000,50,20,10,50,–,–,–
"CN[C@@H](Cc1ccccc1)C(=O)N[C@@H](CCCCN)C(=O)N1CCC[C@H]1C(=O)N[C@H](CC1CCCCC1)C(=O)N[C@@H](CC1CCCCC1)C(=O)N[C@H](CCCNC(=N)N)C(=O)O [C028, MePhe Lys Pro dCha Cha dArg] (H-[NMeF]KP[dCha][Cha][dR]-OH)",almost complete agonists of all of these responses,full agonist for degranulation,200,–,8,10,–,comparable elevations in Ca^2+ level,–,–
CN[C@@H](Cc1ccccc1)C(=O)N[C@@H](CCCCN)C(=O)N1CCC[C@H]1C(=O)N[C@H](CC1CCCCC1)C(=O)N[C@@H](Cc1cccc2ccccc12)C(=O)N[C@H](CCCNC(=N)N)C(=O)O [C061] (H-[NMeF]KP[dCha][1Nal][dR]-OH),–,totally devoid of degranulating activity,–,–,–,100,–,only a very small increase in intracellular Ca^2+ levels; also recorded: small increase in the level of intracellular Ca^2+,–,–
CN[C@@H](Cc1ccccc1)C(=O)N[C@@H](CCCCN)C(=O)N1CCC[C@H]1C(=O)N[C@H](CC1CCCCC1)C(=O)N[C@@H](Cc1c[nH]c2ccccc12)C(=O)N[C@H](CCCNC(=N)N)C(=O)O [C089],without agonist activity in any of the assays; also recorded: do not induce a response; also recorded: completely devoid of agonist activity,totally devoid of degranulating activity,–,–,–,–,–,fails to stimulate a detectable change in Ca^2+ level,–,–
B1,–,–,0.5,–,8,–,–,comparable elevations in Ca^2+ level,22,57
